Experimental data from US11654136B2, “Phosphoinositide 3-kinase inhibitor with a zinc binding moiety” (Curis, Inc., priority 2011, dated 2023).

Key:
WiDr = experiment: Cell proliferation assay WiDr; assay type: cell-based; conditions: Homo sapiens, Colon, 72 hours, read-out: IC50 antiproliferative activity
Method: (§1) Growth inhibition was accessed by adenosine triphosphate (ATP) content assay using Promega CellTiter-Glo kit. Promega CellTiter-Glo kit is an ATP monitoring system based on firefly luciferase. Briefly, 16 μl of mammalian cell lysis and substrate solution was added to 84 µl of culture medium per well to lyse the cells and stabilize the ATP. The mixture was shaken and incubated for 30 minutes and subsequently the luminescence was measured. IC50 values were calculated using PRISM software (GraphPad Software) with sigmoidal dose-response curve fitting.

SW403 = experiment: Cell proliferation assay SW403; assay type: cell-based; conditions: Homo sapiens, SW-403, Colon, 72 hours, read-out: IC50 antiproliferative activity
Method: as §1

MiaPaca2 = experiment: Cell proliferation assay MiaPaca2; assay type: cell-based; conditions: Homo sapiens, MIA PaCa-2, Pancreas, 72 hours, read-out: IC50 antiproliferative activity
Method: as §1

CaPan2 = experiment: Cell proliferation assay CaPan2; assay type: cell-based; conditions: Homo sapiens, Capan-2, Pancreas, 72 hours, read-out: IC50 antiproliferative activity
Method: as §1

BT474 = experiment: Cell proliferation assay BT474; assay type: cell-based; conditions: Homo sapiens, BT-474, Breast, 72 hours, read-out: IC50 antiproliferative activity
Method: as §1

UACC-893 = experiment: Cell proliferation assay UACC-893; assay type: cell-based; conditions: Homo sapiens, Breast, 72 hours, read-out: IC50 antiproliferative activity
Method: as §1

MDA-MB-453 = experiment: Cell proliferation assay MDA-MB-453; assay type: cell-based; conditions: Homo sapiens, Breast, 72 hours, read-out: IC50 antiproliferative activity
Method: as §1

MV-4-11 = experiment: Cell proliferation assay MV-4-11; assay type: cell-based; conditions: Homo sapiens, MV4-11, AML, 72 hours, read-out: IC50 antiproliferative activity
Method: as §1

Raji = experiment: Cell proliferation assay Raji; assay type: cell-based; conditions: Homo sapiens, B-Cell Lymphoma, 72 hours, read-out: IC50 antiproliferative activity
Method: as §1

DOHH2 = experiment: Cell proliferation assay DOHH2; assay type: cell-based; conditions: Homo sapiens, DOHH-2, B-Cell Lymphoma, 72 hours, read-out: IC50 antiproliferative activity
Method: as §1

MEG-01 = experiment: Cell proliferation assay MEG-01; assay type: cell-based; conditions: Homo sapiens, CML, 72 hours, read-out: IC50 antiproliferative activity
Method: as §1

[1] = system: SU-DHL4 (diffuse large B-cell lymphoma cell line) xenograft tumors; experiment: SU-DHL4 xenograft tumor model; assay type: in vivo, nude mice
Method: SU-DHL4 (diffuse large B-cell lymphoma cell line), H2122 (human NSCLC cell line), Daudi (non-Hodgkin's lymphoma cell line), and OPM2 (multiple myeloma tumor cell line) cells were implanted into either nude or Scid (severe […] immune-deficient) mice. […]. […] The control groups were treated with vehicle using the same dosing schedule as the corresponding active group.
In another study, the Daudi tumor group was dosed at 50 mg/Kg twice a day for five days per week. […] The SU-DHL4 tumor group was dosed at 100 mg/Kg orally or 50 mg/Kg intravenously.
Tumors were measured during the study period with an electronic caliper, and body weights were measured twice a week. The following formula was used to calculate the tumor volume: […] Percentage of tumor volume change was used to describe compound activity over the treatment period.

MM1R subcutaneous tumor = experiment: MM1R xenograft model; assay type: in vivo, SCID/Beige mice; conditions: oral gavage five times per week
Method: Female SCID/Beige mice at age 4 weeks were housed in ventilated micro-isolator cages (INNOCAGE®IVC, Innovive Inc., San Diego, Calif.) in a controlled climate, fed with sterile high-fat diet (Problab-RMH 2000) ad libitum and provided with sterilized water. All housing and supplies for SCID/Beige mice were sterilized by autoclaving before use. Mice were inspected daily including weekends/holidays by trained animal facility personnel and investigators. All animal procedures were performed under sterile conditions within a biosafety cabinet (for injections) or laminar flow hood (for animal husbandry and non-invasive procedures).
MM1R human MM cells were originally obtained from peripheral blood of a multiple myeloma patient (Goldman-Leikin R E, et al., J Lab Clin Invest. 1980, 13:335-345). Cryopreserved cells were thawed in a 37° C. water bath and cultured in RPMI medium plus 10% Fetal Bovine Serum (FBS) in a tissue culture incubator at 5% CO2. Cells were sent to outside vendors for contaminants and rodent pathogen screening intended to rule out contamination by mycoplasma (by PCR) and/or virus (by MAP test, Mouse Antibody Production). When the cells in culture were enough for implantation, they washed with serum free Hank's balanced salt solution (HBSS). Finally the cells were diluted in HBSS for implantation. […] The implanted mice were monitored for general health and tumor development daily.
Tumors were detectable about two weeks following implantation. Tumor size was measured with a caliper. […]
During each animal study, tumors were measured with calipers, tumor size determined using the above mentioned formula, and tumor size changes in percentage calculated. Mouse body weights were measured with a scale twice per week. […] T/C values were calculated using the following formula: % T/C=100×ΔT/ΔC if ΔT>0. […]
The treatment period was 18 days. Tumor sizes and body weights were measured again on the last day of the study.

SMILES | IC50 (WiDr) | IC50 (SW403) | IC50 (MiaPaca2) | IC50 (CaPan2) | IC50 (BT474) | IC50 (UACC-893) | IC50 (MDA-MB-453) | IC50 (MV-4-11) | IC50 (Raji) | IC50 (DOHH2) | IC50 (MEG-01) | Tumor growth ([1]; intravenous (IV) 50 mg/kg) | Tumor growth ([1]; orally (PO) 100 mg/kg) | T/C value (MM1R subcutaneous tumor; day-17, p<0.0001) | Body weight and side effects (MM1R subcutaneous tumor; single agent, 18 days) | Tumor growth (MM1R subcutaneous tumor; single agent, 18 days)
COc1ccc(-c2nc(N3CCOCC3)c3sc(CN(C)c4ncc(C(=O)NO)cn4)cc3n2)cn1 [Compound 1, N-hydroxy-2-(((2-(6-methoxypyridin-3-yl)-4-morpholinothieno[3,2-d]pyrimidin-6-yl)methyl)(methyl)amino)pyrimidine-5-carboxamide] | 10 to 100 nM | < 10 nM | 10 to 100 nM | 10 to 100 nM | < 10 nM | 10 to 100 nM | < 10 nM | < 10 nM | 10 to 100 nM | < 10 nM | < 10 nM | strongly inhibited tumor growth | strongly inhibited tumor growth | 21.15% | No body weight loss or other side effects were observed | inhibited tumor growth
CS(=O)(=O)N1CCN(Cc2cc3nc(-c4cccc5[nH]ncc45)nc(N4CCOCC4)c3s2)CC1 [GDC-0941, reference compound] | > 10000 nM | > 10000 nM | > 10000 nM | > 10000 nM | 100 to 1000 nM | 1000 to 10000 nM | 100 to 1000 nM | 1000 to 10000 nM | > 10000 nM | 10 to 100 nM | > 10000 nM | – | – | – | – | –
